From US20220127297A1, “Novel Antibacterial 3"-Derivatives Of 4,6-Disubstituted 2,5-Dideoxystreptamine Aminoglycoside Antibiotics” (AGILeBiotics B.V., priority 2018, published 2022) come the findings set out here.

≈ marks a conversion by molar mass, not a printed value.

Test [1] relates to A. baumannii ATCC BAA-1800. Put plainly: MIC 90, resistant ATCC strains of the ESKAPE panel. In kind it is cell-based. The settings on record: Acinetobacter baumannii, ATCCBAA1800, MDR. The text has this: (§1) 3.3 Protocol for MIC Determination (ATCC Strains)
(§2) Tested reference compounds. Amikacin sulfate (Cat. No. 01693, Chem-Impex), Gentamicin sulfate (Cat. No. G4918, Sigma Aldrich), Azithromycin (Cat. No. 1046056, USP), Ceftazidime Pentahydrate (Cat. No. 1098130, USP), Ciprofloxacin (Cat. No. 1134313, USP), Meropenem (Cat. No. 1392454, USP), Rifampicin (Cat. No. R0079, TCI), Tobramycin (Cat. No. 1667508, USP), Vancomycin (Cat. No. 1709007 USP).
(§3) Microbial strains. Staphylococcus aureus ATCC 29213, Staphylococcus aureus ATCC BAA-1717, Escherichia coli ATCC BAA-1025, Klebsiella pneumoniae ATCC BAA-1705, Klebsiella pneumoniae ATCC BAA-2524, Pseudomonas aeruginosa ATCC 27853, Pseudomonas aeruginosa ATCC BAA-2108, Acinetobacter baumannii ATCC BAA-1800.
(§4) Culture media and equipment. BBL™ Mueller Hinton Broth (REF 275730, Lot. 7009699, Becton Dickinson), Mueller Hinton Agar 2 (Ref. No. 97580-500G-F, Lot. No. BCBV4646, Sigma), Dulbecco's Modified Eagle's Medium (DMEM) (Cat. No. 41966-029, Gibco), Minimum Essential Medium (MEM) (Cat. No. 42360-024, Gibco), Fetal bovine serum (FBS) (Cat. No. F7524, Sigma), Non-essential amino acids (NEAA) (100×, Cat. No. 11140-035, Gibco), Sodium Pyruvate (100 mM, 100×, Cat. No. 11360-039, Gibco), Staurosporine (Cat. No. B50188, Biotrend), Cellstar 96-well plates U-bottom (Cat. No. 650180, Lot. No. E14123EB, Greiner Bio-one), CellTiter-Glo (Cat. No. G7573, Promega), 96-well plate V-bottom (Cat. No. 651201, Greiner), 96-well clear plate, U-bottom, (Cat. No. 650180, Greiner), 96-well white plate with clear bottom (Cat. No. 655098, Greiner), 96-well deep well plate 1 mL (Cat. No. 278606, Nunc), Sodium Pyruvate (100 mM, 100×, Gibco, Cat #11360-039), Incubator (Binder), Laminar flow (Thermo Scientific), BioPhotometer (Eppendorf); DEN-1B (McFarland Densitometer, Biosan); McFarland standards (polymer microparticle suspension, Biosan).
(§5) Compound preparation. The test compounds and reference antibiotics were prepared according to CLSI guidelines (Clinical and Laboratory Standards Institute (CLSI); Methods for dilution antimicrobial susceptibility tests for bacteria that grow aerobically; approved standard—ninth edition, M07-A9, Vol. 32, No. 2, 2012) as 5 mg/mL stock solutions in DMSO. Out of these DMSO solutions, 43.5 μL was transferred to 1656.5 μL of MH media in a deep well plate. Out of these working solutions 100 μL was transferred to wells in the third column of 96-well plates. Plates were previously filled with 50 μL of MH media in all wells except for the wells in the third column. After compound and antibiotic addition, 50 μL was transferred from the third to the fourth column, then from the fourth to the fifth and so on. In this manner, the compounds and antibiotics were plated in 96-well plate in serial two-fold dilutions giving a final concentration range of 64-0.125 μg/mL.
(§6) Preparation of microorganisms. Designations used for clinical isolates were from the Fidelta strain collection bank. Microorganisms used were all revived from skim milk storage at −70° C. by plating them on MH agar plates. The following day the single colony of each microorganism was again streaked on fresh agar plates. The next day, using the direct colony suspension method, broth solutions that achieve turbidity equivalent to 0.5 McFarland standard for each microorganism were prepared. […] Out of these suspensions, actual inoculums were prepared by diluting them 100× with MH media giving a final microorganism count of 2-8×10^5 CFU/mL. For each strain of microorganisms, 20 mL of these inoculum solutions were prepared. From the second to the twelfth column of 96-well plates, 50 μL of these solutions were transferred per well. To the first column, 50 μL per well of pure growth media was added. In this manner the first column was used as sterility control of media, the second column was used as control of microorganism's growth and the rest of the plate was used for MIC determination. All plates were incubated for 16-24 h at 37° C. […]

Test [2] relates to K. pneumoniae ATCC BAA-1705. Put plainly: MIC 90, resistant ATCC strains of the ESKAPE panel. The format is cell-based. The settings on record: Klebsiella pneumoniae, ATCCBAA1705, KPC.
Text: as §1, §2, §3, §4, §5, §6

Test [3] relates to K. pneumoniae ATCC BAA-2524. The experiment in a line: MIC 90, resistant ATCC strains of the ESKAPE panel. In kind it is cell-based. The note with it: Klebsiella pneumoniae, ATCCBAA2524, OXA-48.
Text: as §1, §2, §3, §4, §5, §6

Test [4] relates to P. aeruginosa ATCC BAA-2108. Put plainly: MIC 90, resistant ATCC strains of the ESKAPE panel. The format is cell-based. The note with it: Pseudomonas aeruginosa, ATCCBAA2108, MDR.
Text: as §1, §2, §3, §4, §5, §6

Test [5] relates to S. aureus ATCC BAA-1717. Put plainly: MIC 90, resistant ATCC strains of the ESKAPE panel. In kind it is cell-based. The note with it: Staphylococcus aureus, MRSA.
Text: as §1, §2, §3, §4, §5, §6

Test [6] deals with E. coli ATCC BAA-1025 (= BL 21). The experiment in a line: MIC 90, broth micro-dilution, ATCC strains. The settings on record: Escherichia coli, ATCCBAA1025, read-out: MIC 90. The format is cell-based, Escherichia coli.
Text: as §1, §2, §3, §4, §5, §6
A general note: Dilution methods test growth across graded concentrations, often in twofold steps.

Test [7] concerns P. aeruginosa ATCC 27853. Put plainly: MIC 90, broth micro-dilution, ATCC strains. In kind it is cell-based, Pseudomonas aeruginosa. The note with it: Pseudomonas aeruginosa, ATCC27853, read-out: MIC 90.
Text: as §1, §2, §3, §4, §5, §6

The test system of test [8] is S. aureus ATCC 29213. Put plainly: MIC 90, broth micro-dilution, ATCC strains. The note with it: Staphylococcus aureus, ATCC29213, read-out: MIC 90. In kind it is cell-based, Staphylococcus aureus.
Text: as §1, §2, §3, §4, §5, §6

`N=C(NCCO)NC1[C@@H](O)C(OC2[C@@H](F)[C@H](O[C@H]3OC(CN)[C@@H](O)CC3N)C(N)C[C@H]2NC(=O)[C@@H](O)CCN)O[C@H](CO)[C@H]1O` (stereo partly shown) [ABX5029, Tobra-AHB-F-Gua 2-hydroxy-ethyl]: the MIC90 in test [1] is 16 µg/mL (≈ 24.4 µM); in test [2], 4 µg/mL (≈ 6.09 µM); in test [3] it was 0.25 µg/mL (≈ 0.381 µM); in test [4] it was 4 µg/mL (≈ 6.09 µM); in test [5], 0.5 µg/mL (≈ 0.761 µM).
`N=C(N)NC1C(O)[C@@H](CO)OC(OC2C(F)[C@H](O[C@H]3OC(CN)[C@@H](O)CC3N)C(N)C[C@H]2NC(=O)[C@@H](O)CCN)[C@@H]1O` (stereo partly shown) [ABX5006, Tobra-AHB-F-Gua]: the MIC90 in test [6] is 0.5 µM (≈ 0.306 µg/mL); in test [7], 0.25 µM (≈ 0.153 µg/mL); in test [8], 0.5 µM (≈ 0.306 µg/mL); in test [1], 16 µg/mL (≈ 26.1 µM); in test [2], 2 µg/mL (≈ 3.26 µM); in test [3], < 0.125 µg/mL. Besides, the results for the MIC90 in test [4] and in test [5] were 4 µg/mL (≈ 6.53 µM) and 0.5 µg/mL (≈ 0.816 µM), respectively.
With `N=C(NC[C@@H]1CCCN1)NC1[C@@H](O)C(OC2[C@@H](F)[C@H](O[C@H]3OC(CN)[C@@H](O)CC3N)C(N)C[C@H]2NC(=O)[C@@H](O)CCN)O[C@H](CO)[C@H]1O` (stereo partly drawn) [ABX5026, Tobra-AHB-F-Gua (S) pyrrolidine-2-yl-methyl], the MIC90 worked out at 1 µM (≈ 0.696 µg/mL) in test [6]; 1 µM (≈ 0.696 µg/mL) in test [7]; 0.5 µM (≈ 0.348 µg/mL) in test [8]; 32 µg/mL (≈ 46 µM) in test [1]; 4 µg/mL (≈ 5.75 µM) in test [2]; 0.5 µg/mL (≈ 0.719 µM) in test [3]. In addition, the MIC90 amounted to 8 µg/mL (≈ 11.5 µM) in test [4] and 0.5 µg/mL (≈ 0.719 µM) in test [5].
Consider `N=C(NC[C@@H]1CCNC1)NC1[C@@H](O)C(OC2[C@@H](F)[C@H](O[C@H]3OC(CN)[C@@H](O)CC3N)C(N)C[C@H]2NC(=O)[C@@H](O)CCN)O[C@H](CO)[C@H]1O` (stereo partly drawn) [ABX5039, Tobra-AHB-F-Gua (R) pyrrolidine-3-ylmethyl], for which the MIC90 turned out to be 16 µg/mL (≈ 23 µM) in test [1]; 4 µg/mL (≈ 5.75 µM) in test [2]; 0.5 µg/mL (≈ 0.719 µM) in test [3]; 8 µg/mL (≈ 11.5 µM) in test [4]; 0.5 µg/mL (≈ 0.719 µM) in test [5].
As for `N=C(N)NC1[C@@H](O)C(OC2[C@@H](F)[C@H](O[C@H]3OC(CN)[C@@H](O)[C@H](O)C3N)C(N)C[C@H]2NC(=O)[C@@H](O)CCN)O[C@H](CO)[C@H]1O` (stereo partly shown) [ABX4006, KanaB-AHB-F-Gua], the MIC90 is 16 µg/mL (≈ 25.5 µM) in test [1]; 2 µg/mL (≈ 3.18 µM) in test [2]; < 0.125 µg/mL in test [3]; 16 µg/mL (≈ 25.5 µM) in test [4]; 4 µg/mL (≈ 6.36 µM) in test [5].
In the case of `N=C(NC[C@@H]1CNCCO1)NC1[C@@H](O)C(OC2[C@@H](F)[C@H](O[C@H]3OC(CN)[C@@H](O)CC3N)C(N)C[C@H]2NC(=O)[C@@H](O)CCN)O[C@H](CO)[C@H]1O` (stereo partly drawn) [ABX5040, Tobra-AHB-F-Gua (S) morpholin-2-yl methyl], the MIC90 is 32 µg/mL (≈ 45 µM) in test [1]; 8 µg/mL (≈ 11.2 µM) in test [2]; 0.5 µg/mL (≈ 0.702 µM) in test [3]; 8 µg/mL (≈ 11.2 µM) in test [4]; 0.5 µg/mL (≈ 0.702 µM) in test [5].
For the compound `N=C(NC[C@H]1CCNC1)NC1[C@@H](O)C(OC2[C@@H](F)[C@H](O[C@H]3OC(CN)[C@@H](O)CC3N)C(N)C[C@H]2NC(=O)[C@@H](O)CCN)O[C@H](CO)[C@H]1O` (stereo partly drawn) [ABX5042, Tobra-AHB-F-Gua (S) pyrrolidine-3-ylmethyl], the MIC90 stood at 32 µg/mL (≈ 46 µM) in test [1]; 4 µg/mL (≈ 5.75 µM) in test [2]; 0.5 µg/mL (≈ 0.719 µM) in test [3]; 8 µg/mL (≈ 11.5 µM) in test [4]; 0.5 µg/mL (≈ 0.719 µM) in test [5].
On to `CNCCNC(=N)NC1[C@@H](O)C(OC2[C@@H](F)[C@H](O[C@H]3OC(CN)[C@@H](O)CC3N)C(N)C[C@H]2NC(=O)[C@@H](O)CCN)O[C@H](CO)[C@H]1O` (stereo partly shown) [ABX5038, Tobra-AHB-F-Gua 2-(methylamino)ethyl], for which the MIC90 worked out at 32 µg/mL (≈ 47.8 µM) in test [1]; 8 µg/mL (≈ 11.9 µM) in test [2]; 0.5 µg/mL (≈ 0.747 µM) in test [3]; 4 µg/mL (≈ 5.97 µM) in test [4]; 0.5 µg/mL (≈ 0.747 µM) in test [5].
